Source: PubChem BioAssay AID2060508 (Molecular Pharmacology Branch, DTP, NCI, 2025)

Test system: 454973-116-R2-J3-PDC spheroids, viability, % test/control
Assay: Anticancer human tumor 454973-116-R2-J3-PDC patient-derived pancreatic carcinoma cell line growth inhibition [GQUAD]
Details: spheroids with HUVEC and MSC; for IC50: curve of first compound; for viability, T/C: stronger effect = lower value
Source text: DNA G-quadruplex Stabilizer Agents in Combinations in Complex Spheroids
A high-throughput screen of multi-cell type tumor spheroids was designed to identify active combinations of DNA G-quadruplex stabilizer agents and targeted small molecules. Complex spheroids include a stromal component modeled by human endothelial cells (HUVEC) and fibroblasts modeled by human mesenchymal stem cells (MSCs). The concentration ranges selected for each drug and investigational agent were based upon clinically achievable concentrations if the clinical Cmax of the agent was known.
Compounds. The drugs and investigational agents: pidnarulex (CX-5461; NSC782164), APTO-253 (NSC789042), BRACO-19 (NSC847499), peposertib (NSC802822), ceralasertib (NSC780249), elimusertib (NSC800525), camonsertib (NSC841442), AZD-1390 (NSC803789), olaparib (NSC753686), talazoparib (NSC767125), ART-558 (NSC835418), sotorasib (NSC818433), MRTX-1133 (NSC836407), SN-38 (NSC673596), topotecan (NSC609699), etoposide (NSC141540), doxorubicin (NSC123127), gemcitabine (NSC613327), 5-fluorouracil (NSC19893), paclitaxel (NSC125973), vemurafenib (NSC761431), panobinostat (NSC761190), R-306465 (JNJ-16241199; NSC773264), adavosertib (NSC754352), TP-3654 (NSC805149), carboplatin (NSC241240), KSQ-4279 (NSC840948), and staurosporine (NSC755774) were obtained from the National Cancer Institute (NCI) Developmental Therapeutics Program Chemical Repository (34). The FDA-approved anticancer drug set is available from the NCI Developmental Therapeutics Program. […] The stock solutions were prepared in dimethyl sulfoxide (DMSO, Sigma-Aldrich, St. Louis, MO, cat. D2650) at 800-fold the tested concentration and stored at -70 degrees C prior to their use. All drugs and investigational agents were tested over a range starting from a high concentration at or near the clinical Cmax and decreasing in half-log increments. If the clinical Cmax for an agent had not been determined, the highest concentration tested was 10 microM.
2.3 Cell Culture. All cells were maintained in an incubator at 37 degrees C and 5% CO2 with 95% humidity. The PDC lines were cultured according to standard operating procedures established by the NCI PDMR. All PDCs were thawed and cultured in Matrigel-coated flasks prepared with a working solution of 1X Ham's F-12 nutrient mix, without supplementation (Invitrogen, cat. 11765054), 100 U/mL penicillin-streptomycin (Invitrogen, cat. 15140122), and 2.5% Matrigel (Corning Inc., cat. 354248) for the first three passages. The 857933-349-R-J2-PDC line was cultured in 6C/Colon 1B media, which includes advanced DMEM/F-12 (Thermo Fisher Scientific, cat. 12634028), 10 mM HEPES (Thermo Fisher Scientific, cat. 15630080), 1X GlutaMAX supplement (Thermo Fisher Scientific, cat. 35050061), 0.1 mg/mL primocin (InvivoGen, cat. ant-pm-2), 10% defined fetal bovine serum, heat inactivated (HyClone Laboratories Inc., cat. SH30070.03HI), 50% L-WRN conditioned media (ATCC, cat. CRL-3276), 1.25 mM N-Acetyl-L-cysteine (Sigma-Aldrich, cat. A9165), 10 mM nicotinamide (Sigma-Aldrich, cat. N0636), 1X B-27 supplement (Thermo Fisher Scientific, cat. 17504044), 1X N-2 supplement (Thermo Fisher Scientific, cat. 17502048), 10 microM Y-27632 dihydrochloride (Tocris Bioscience, cat. 1254), and 50 ng/mL human EGF recombinant protein (Thermo Fisher Scientific, cat. PHG0311). The 485176-168-R4-J1-PDC line was cultured in Panc media, which includes all 6C/Colon 1B media components plus 100 ng/mL human FGF-10 (Thermo Fisher Scientific, cat. 100-26), 500 nM SB-431542 (Selleckchem, cat. S1067), and gastrin (Tocris, cat. 3006).
[…]

[1] = second compound 0.0316 µM, first compound 0.0316 µM
[2] = second compound 0.0316 µM, first compound 0.316 µM
[3] = second compound 0.1 µM, first compound 0.0316 µM
[4] = second compound 0.1 µM, first compound 0.316 µM
[5] = second compound 0.316 µM, first compound 0.0316 µM
[6] = second compound 0.316 µM, first compound 0.316 µM
[7] = second compound 1 µM, first compound 0.0316 µM
[8] = second compound 1 µM, first compound 0.316 µM
[9] = second compound 3.16 µM, first compound 0.0316 µM
[10] = second compound 3.16 µM, first compound 0.316 µM
[11] = second compound 10 µM, first compound 0.0316 µM
[12] = second compound 10 µM, first compound 0.316 µM
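Note: spheroids exposed to compounds for seven days.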

CCc1c2c(nc3ccc(O)cc13)-c1cc3c(c(=O)n1C2)COC(=O)[C@]3(O)CC + Cc1[nH]c2ccc(F)cc2c1-c1nc2c3cccnc3c3ncccc3c2[nH]1
IC50 (second compound 0.0316 µM): 1.53 nM
IC50 (second compound 0.1 µM): 1.47 nM
IC50 (second compound 0.316 µM): 1.67 nM
IC50 (second compound 1 µM): 1.62 nM
IC50 (second compound 3.16 µM): 1.34 nM
IC50 (second compound 10 µM): 1.54 nM
viability, T/C (second compound 0.0316 µM, first compound 0.000999 µM): 62.5%
viability, T/C (second compound 0.0316 µM, first compound 0.00316 µM): 26.2%
viability, T/C (second compound 0.0316 µM, first compound 0.00999 µM): 21.5%
viability, T/C [1]: 14.5%
viability, T/C (second compound 0.0316 µM, first compound 0.0999 µM): 7.97%
viability, T/C [2]: 3.8%
viability, T/C (second compound 0.1 µM, first compound 0.000999 µM): 63.1%
viability, T/C (second compound 0.1 µM, first compound 0.00316 µM): 21.8%
viability, T/C (second compound 0.1 µM, first compound 0.00999 µM): 19.9%
viability, T/C [3]: 13%
viability, T/C (second compound 0.1 µM, first compound 0.0999 µM): 8.7%
viability, T/C [4]: 3.86%
viability, T/C (second compound 0.316 µM, first compound 0.000999 µM): 67.5%
viability, T/C (second compound 0.316 µM, first compound 0.00316 µM): 25.7%
viability, T/C (second compound 0.316 µM, first compound 0.00999 µM): 19.2%
viability, T/C [5]: 14.6%
viability, T/C (second compound 0.316 µM, first compound 0.0999 µM): 7.62%
viability, T/C [6]: 3.05%
viability, T/C (second compound 1 µM, first compound 0.000999 µM): 67.3%
viability, T/C (second compound 1 µM, first compound 0.00316 µM): 22.5%
viability, T/C (second compound 1 µM, first compound 0.00999 µM): 22%
viability, T/C [7]: 13.3%
viability, T/C (second compound 1 µM, first compound 0.0999 µM): 7.87%
viability, T/C [8]: 5.39%
viability, T/C (second compound 3.16 µM, first compound 0.000999 µM): 59.1%
viability, T/C (second compound 3.16 µM, first compound 0.00316 µM): 21.1%
viability, T/C (second compound 3.16 µM, first compound 0.00999 µM): 21.8%
viability, T/C [9]: 15.2%
viability, T/C (second compound 3.16 µM, first compound 0.0999 µM): 8.28%
viability, T/C [10]: 5.63%
viability, T/C (second compound 10 µM, first compound 0.000999 µM): 63.6%
viability, T/C (second compound 10 µM, first compound 0.00316 µM): 25.6%
viability, T/C (second compound 10 µM, first compound 0.00999 µM): 18.2%
viability, T/C [11]: 14.2%
viability, T/C (second compound 10 µM, first compound 0.0999 µM): 8.05%
viability, T/C [12]: 3.9%

O=c1[nH]cc(F)c(=O)[nH]1 + Cc1[nH]c2ccc(F)cc2c1-c1nc2c3cccnc3c3ncccc3c2[nH]1
IC50 (second compound 0.0316 µM): 2250 nM
IC50 (second compound 0.1 µM): 1530 nM
IC50 (second compound 0.316 µM): 2190 nM
IC50 (second compound 1 µM): 2360 nM
IC50 (second compound 3.16 µM): 1920 nM
IC50 (second compound 10 µM): 1880 nM
viability, T/C [1]: 116%
viability, T/C (second compound 0.0316 µM, first compound 0.1 µM): 115%
viability, T/C [2]: 109%
viability, T/C (second compound 0.0316 µM, first compound 1 µM): 77.9%
viability, T/C (second compound 0.0316 µM, first compound 3.16 µM): 34.5%
viability, T/C (second compound 0.0316 µM, first compound 10 µM): 42.2%
viability, T/C [3]: 105%
viability, T/C (second compound 0.1 µM, first compound 0.1 µM): 109%
viability, T/C [4]: 109%
viability, T/C (second compound 0.1 µM, first compound 1 µM): 57.5%
viability, T/C (second compound 0.1 µM, first compound 3.16 µM): 33.7%
viability, T/C (second compound 0.1 µM, first compound 10 µM): 40.5%
viability, T/C [5]: 107%
viability, T/C (second compound 0.316 µM, first compound 0.1 µM): 110%
viability, T/C [6]: 105%
viability, T/C (second compound 0.316 µM, first compound 1 µM): 78.9%
viability, T/C (second compound 0.316 µM, first compound 3.16 µM): 31.8%
viability, T/C (second compound 0.316 µM, first compound 10 µM): 41.1%
viability, T/C [7]: 99.2%
viability, T/C (second compound 1 µM, first compound 0.1 µM): 97.2%
viability, T/C [8]: 95.4%
viability, T/C (second compound 1 µM, first compound 1 µM): 79.1%
viability, T/C (second compound 1 µM, first compound 3.16 µM): 33.9%
viability, T/C (second compound 1 µM, first compound 10 µM): 46.3%
viability, T/C [9]: 96.5%
viability, T/C (second compound 3.16 µM, first compound 0.1 µM): 96.1%
viability, T/C [10]: 99.9%
viability, T/C (second compound 3.16 µM, first compound 1 µM): 65.1%
viability, T/C (second compound 3.16 µM, first compound 3.16 µM): 31.4%
viability, T/C (second compound 3.16 µM, first compound 10 µM): 45.6%
viability, T/C [11]: 93.5%
viability, T/C (second compound 10 µM, first compound 0.1 µM): 87.7%
viability, T/C [12]: 102%
viability, T/C (second compound 10 µM, first compound 1 µM): 63.7%
viability, T/C (second compound 10 µM, first compound 3.16 µM): 30.9%
viability, T/C (second compound 10 µM, first compound 10 µM): 46.6%
